Data: patent publication US11642332B2, “(2R,4R)-5-(5′-chloro-2′-fluorobiphenyl-4-yl)-2-hydroxy-4-[(5-methyloxazole-2-carbonyl)amino]pentanoic acid” (THERAVANCE BIOPHARMA R&D IP, LLC, priority 2015, dated 2023)

Key:
[1] = target: T1, human neprilysin (EC 3.4.24.11; NEP) (Homo sapiens, UniProt P08473); assay: In vitro assay for the quantitation of inhibitor potency at human NEP; format: biochemical; conditions: recombinant human NEP, fluorogenic peptide substrate 10 μM, 37° C.; read-out: pKi at human NEP (converted)
T1 construct: purchased R&D Systems 1182-ZN
Experimental: The inhibitory activity at human neprilysin (EC 3.4.24.11; NEP) was determined as follows.
Recombinant human NEP was obtained commercially (R&D Systems, Minneapolis, Minn., catalog number 1182-ZN). The fluorogenic peptide substrate Mca-D-Arg-Arg-Leu-Dap-(Dnp)-OH (Medeiros et al. (1997) Braz. J. Med. Biol. Res. 30:1157-62; Anaspec, San Jose, Calif.) was used.
The assay was performed in 384-well white opaque plates at 37° C. using the fluorogenic peptide substrate at a concentration of 10 μM in Assay Buffer (50 mM HEPES, pH 7.5, 100 mM NaCl, 0.01% polyethylene glycol sorbitan monolaurate (Tween-20), 10 μM ZnSO4).
Test compounds were assayed over the range of concentrations from 10 μM to 20 pM. Test compounds were added to the enzyme and incubated for 30 minute at 37° C. prior to initiating the reaction by the addition of substrate. Reactions were terminated after 20 minutes of incubation at 37° C. by the addition of glacial acetic acid to a final concentration of 3.6% (v/v).
Plates were read on a fluorometer with excitation and emission wavelengths set to […]. Inhibition constants were obtained by nonlinear regression of the data using the equation (GraphPad Software, Inc., San Diego, Calif.): v=v0/[1+(I/K′)] where v is the reaction rate, v0 is the uninhibited reaction rate, I is the inhibitor concentration and K′ is the apparent inhibition constant.
The compounds were tested in this assay and found to have pKi values at human NEP as follows.

[2] = IV/PO pharmacokinetic study in rats; format: in vivo, male Sprague-Dawley rats; parameters: AUC(0-t): concentration or dose not given beside the values; conditions: rat; for AUC(0-t): read-out: AUClast Mean
Experimental: (§1) Each rat or dog PK study began with formulation of the test compound. Appropriate masses of each test compound were added into a volume of vehicle (e.g. 5% sodium bicarbonate, 5% dextrose in H2O) such that the final concentration of each compound was appropriate to be dosed at 2 mL/kg. Although a homogenous suspension were acceptable for oral dosing, intravenous dosing solutions were sterile-filtered (0.2 μm) prior to dosing to ensure no particulates were administered.
In the rat study, pre-cannulated male Sprague-Dawley rats (3 per route) between 8 and 10 weeks of age were obtained from Harlan Laboratories (Indianapolis, Ind.). Rats received either a single oral gavage or a single intravenous (via lateral tail vein) dose of the dosing solution. The final dose was typically 0.5-3 mg/kg. Serial blood samples were harvested via the cannula implanted in the jugular vein at 3 minutes, 15 minutes, 30 minutes, 1 hour, 2 hours, 4 hours, 6 hours, and 24 hours post-dose. Sampling was performed either manually or using automated blood samplers. Samples were collected into microtainer tubes containing EDTA as the anticoagulant and were processed to plasma by refrigerated centrifugation.
(§2) Plasma samples were extracted with 3 volumes of MeCN containing a suitable internal standard. Extracts were reconstituted into 3 volumes of water containing 1% formic acid, and analyzed via HPLC-coupled MS/MS. Plasma concentration-time data were analyzed using the Phoenix software (Pharsight Corp., St. Louis, Mo.) to calculate pharmacokinetic parameters.
(§3) Plasma clearance was determined from the intravenous arm of the study, and represents the rate at which plasma is cleared of drug. It is equal to the dose divided by the area under the plasma concentration-time curve. In addition to plasma clearance, it is also essential for an orally administered drug to reach efficacious systemic levels following oral delivery. Oral bioavailability is a measurement of plasma exposures following oral administration relative to exposures following intravenous administration.

[3] = IV/PO pharmacokinetic study in dogs; format: in vivo, male beagle dogs; parameters: AUC(0-t): concentration or dose not given beside the values; conditions: dog; for AUC(0-t): read-out: AUClast Mean
Experimental: as §1
In the dog study, male beagle dogs (3 per route) housed at Agilux Laboratories (Worcester, Mass.) and weighing between 7-12 kg received either a single oral gavage or a single intravenous (via indwelling catheter) dose of the dosing solution. The final dose was typically 0.1-2 mg/kg. Serial blood samples were harvested via direct venipuncture at 3 minutes, 15 minutes, 30 minutes, 1 hour, 2 hours, 4 hours, 6 hours, 8 hours, 12 hours, and 24 hours post-dose. All samples were collected manually into microtainer tubes containing EDTA as the anticoagulant and were processed to plasma by refrigerated centrifugation.
as §2, §3

[4] = Renal excretion of Compound 1 in monkey; format: in vivo, male cynomolgus monkeys; conditions: IV 1 mg/kg
Experimental: An important factor for insuring appropriate long term drug dosing and correct steady-state drug concentrations in patients is drug clearance. In general, decreased drug clearance results in higher drug concentrations and greater drug effects. In order to understand renal clearance of Compound 1, the percent of administered dose recovered in urine following a single IV dose was assessed in three animal species. Three separate studies in male Sprague Dawley rats, male beagle dogs and male cynomolgus monkeys, respectively, were conducted and the procedure and experimental results are described below.
Male cynomolgus monkeys (N=3), having body weights of 4.42-5.81 kg, received an IV dose of compound 1 at 1 mg/kg. Compound 1 was dissolved in PEG-200:ethanol:water (40:10:50) and filtered through a […] polyvinyl difluoride (PVDF) syringe filter prior to administration. The monkeys had access to food ad libitum before and after administration of Compound 1. Urine samples were collected on dry ice during the collection interval periods, the sample volumes were recorded, and the urine acidified with acetic acid to a final concentration of approximately 2% acetic acid. Aliquots were obtained and frozen (−70° C.) prior to bioanalysis.
Monkey urine concentrations of Compound 1 were determined by LC/MS/MS. Urine samples were thawed and diluted in plasma K2EDTA (1:4). […]

T1 sequence (P08473 52-750 limits assumed): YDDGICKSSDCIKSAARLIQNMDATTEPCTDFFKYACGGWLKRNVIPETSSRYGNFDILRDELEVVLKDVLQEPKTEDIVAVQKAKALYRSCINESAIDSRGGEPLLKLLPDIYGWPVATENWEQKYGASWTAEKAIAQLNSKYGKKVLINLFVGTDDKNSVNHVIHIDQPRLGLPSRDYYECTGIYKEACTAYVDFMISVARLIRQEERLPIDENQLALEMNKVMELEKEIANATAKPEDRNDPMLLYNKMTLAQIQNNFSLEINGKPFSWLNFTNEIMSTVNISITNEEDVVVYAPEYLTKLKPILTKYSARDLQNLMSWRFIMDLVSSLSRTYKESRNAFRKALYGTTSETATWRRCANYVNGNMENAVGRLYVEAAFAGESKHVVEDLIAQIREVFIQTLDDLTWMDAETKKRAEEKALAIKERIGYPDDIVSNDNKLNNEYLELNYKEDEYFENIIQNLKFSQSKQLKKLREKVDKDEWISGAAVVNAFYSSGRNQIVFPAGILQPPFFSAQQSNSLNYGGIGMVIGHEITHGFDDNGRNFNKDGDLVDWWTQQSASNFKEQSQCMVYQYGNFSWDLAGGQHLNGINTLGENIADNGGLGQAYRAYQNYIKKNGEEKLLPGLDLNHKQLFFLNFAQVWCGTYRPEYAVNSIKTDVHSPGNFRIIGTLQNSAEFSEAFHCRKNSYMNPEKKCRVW

- Ki [1]: 0.2 nM
- AUC(0-t) ([2]; male, Sprague-Dawley, plasma, IV): 610 ng·h/mL
- bioavailability ([2]; male, Sprague-Dawley, plasma, PO vs IV AUClast): 67%
- AUC(0-t) ([2]; male, Sprague-Dawley, plasma, PO): 400 ng·h/mL
- CLlast Mean ([2]; IV, dose divided by AUClast): 13.8 mL/min/kg
- CLlast Mean ([3]; IV): 4.83 mL/min/kg
- AUC(0-t) ([3]; male, beagle, plasma, IV): 510 ng·h/mL
- bioavailability ([3]; male, beagle, plasma, PO vs IV AUClast): > 100%
- AUC(0-t) ([3]; male, beagle, plasma, PO): 530 ng·h/mL
- Amount of Compound 1 Excreted in Urine over Collection Period (0-24 hrs) Mean [4]: 157 µg
SMILES: Cc1cnc(C(=O)N[C@H](Cc2ccc(-c3cc(Cl)ccc3F)cc2)C[C@@H](O)C(=O)O)o1 [Compound 1, (2R,4R)-5-(5′-Chloro-2′-fluorobiphenyl-4-yl)-2-hydroxy-4-[(5-methyloxazole-2-carbonyl)amino]pentanoic Acid]
